Molecular target: T1, mTOR (Homo sapiens, UniProt P42345)
T1 construct: FLAG; made in house
Experiment: In Vitro mTOR Kinase Assay (Echo), Test (a)(ii)
Type: biochemical
Conditions: read-out: mTOR Kinase Assay (Echo)
Outline: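 Inhibition of truncated mTOR (1362-2549, FLAG-tagged, purified from stably transfected HEK293 cells) is measured as reduced AlphaScreen signal from a phospho-T389-recognising antibody bound to the biotinylated peptide product. Kinase incubation lasts 2 hours at room temperature. Potency is given as IC50.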

T1 sequence (P42345 1362-2549): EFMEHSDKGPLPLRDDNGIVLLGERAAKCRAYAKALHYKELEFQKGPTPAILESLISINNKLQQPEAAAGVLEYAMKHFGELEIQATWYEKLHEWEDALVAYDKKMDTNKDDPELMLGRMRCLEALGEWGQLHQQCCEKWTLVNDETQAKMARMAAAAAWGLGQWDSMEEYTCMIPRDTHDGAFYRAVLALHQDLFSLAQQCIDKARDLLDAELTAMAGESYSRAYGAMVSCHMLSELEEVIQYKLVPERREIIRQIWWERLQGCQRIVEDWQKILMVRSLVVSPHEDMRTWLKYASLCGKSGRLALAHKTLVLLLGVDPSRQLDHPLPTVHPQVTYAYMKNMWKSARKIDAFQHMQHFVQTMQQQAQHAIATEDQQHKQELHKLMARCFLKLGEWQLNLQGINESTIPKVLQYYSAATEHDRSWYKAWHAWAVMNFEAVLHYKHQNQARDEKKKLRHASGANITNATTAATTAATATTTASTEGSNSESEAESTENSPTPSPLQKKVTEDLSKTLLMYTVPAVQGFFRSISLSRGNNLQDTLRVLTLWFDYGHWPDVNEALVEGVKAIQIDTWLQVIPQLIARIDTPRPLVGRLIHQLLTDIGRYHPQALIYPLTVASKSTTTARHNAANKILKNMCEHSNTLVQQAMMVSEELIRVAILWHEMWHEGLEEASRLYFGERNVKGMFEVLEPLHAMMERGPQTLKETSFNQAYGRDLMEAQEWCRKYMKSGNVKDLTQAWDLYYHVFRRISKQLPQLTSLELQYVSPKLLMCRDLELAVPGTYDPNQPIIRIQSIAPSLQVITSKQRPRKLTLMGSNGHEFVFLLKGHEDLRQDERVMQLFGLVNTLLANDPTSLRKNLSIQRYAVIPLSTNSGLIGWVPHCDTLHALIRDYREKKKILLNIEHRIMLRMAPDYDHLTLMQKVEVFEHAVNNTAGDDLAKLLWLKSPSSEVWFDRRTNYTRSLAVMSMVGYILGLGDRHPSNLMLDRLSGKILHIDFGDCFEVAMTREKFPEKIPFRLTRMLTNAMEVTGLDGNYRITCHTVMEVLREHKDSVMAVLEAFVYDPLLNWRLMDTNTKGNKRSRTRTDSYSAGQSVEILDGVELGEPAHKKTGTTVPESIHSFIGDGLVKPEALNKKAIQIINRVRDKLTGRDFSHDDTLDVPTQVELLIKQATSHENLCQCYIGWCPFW

IC50	SMILES
4.82 nM	CC(C)S(=O)(=O)C1(c2cc(N3CCOC[C@@H]3C)nc(-c3ccc(NC(=O)Nc4ccc(C(F)(F)F)cc4)cc3)n2)CC1 [Example 7k, 1-[4-[4-[(3S)-3-methylmorpholin-4-yl]-6-(1-propan-2-ylsulfonylcyclopropyl)pyrimidin-2-yl]phenyl]-3-[4-(trifluoromethyl)phenyl]urea]
0.497 nM	C[C@H]1COCCN1c1cc(C2(S(=O)(=O)C3CC3)CC2)nc(-c2ccc(NC(=O)Nc3cnn(C)c3)cc2)n1 [Example 3m, 1-[4-[4-(1-cyclopropylsulfonylcyclopropyl)-6-[(3S)-3-methylmorpholin-4-yl]pyrimidin-2-yl]phenyl]-3-(1-methylpyrazol-4-yl)urea]
1.4 nM	CS(=O)(=O)C1(c2cc(N3CCOCC3)nc(-c3ccc(NC(=O)NC4CC4)cc3)n2)CCC1 [Example 12p, 3-cyclopropyl-1-[4-[4-(1-methylsulfonylcyclobutyl)-6-morpholin-4-ylpyrimidin-2-yl]phenyl]urea]

Same assay, conditions: table of enzyme assay Test (a)(ii); read-out: Test (a)(ii) IC50

SMILES	IC50
C[C@H]1COCCN1c1cc(C2(S(=O)(=O)c3ccc(F)cc3)CCC2)nc(-c2ccc(NC(=O)NC(C)(C)CO)cc2)n1 [Example 65c, 1-[4-[4-[1-(4-fluorophenyl)sulfonylcyclobutyl]-6-[(3S)-3-methylmorpholin-4-yl]pyrimidin-2-yl]phenyl]-3-(1-hydroxy-2-methylpropan-2-yl)urea]	15.1 nM
O=C(Nc1ccc(-c2nc(N3CCOCC3)cc(C3(S(=O)(=O)c4ccccc4)CC3)n2)cc1)NC1CC1 [Example 36dc, 1-[4-[4-[1-(benzenesulfonyl)cyclopropyl]-6-morpholin-4-ylpyrimidin-2-yl]phenyl]-3-cyclopropylurea]	9.89 nM
CCCNC(=O)Nc1ccc(-c2nc(N3CCOCC3)cc(C3(S(=O)(=O)C4CC4)CC3)n2)cc1 [Example 13g, 1-[4-[4-(1-cyclopropylsulfonylcyclopropyl)-6-morpholin-4-ylpyrimidin-2-yl]phenyl]-3-propylurea]	4.79 nM
C[C@H]1COCCN1c1cc(C2(S(=O)(=O)C3CC3)CCC2)nc(-c2ccc(NC(=O)NCCCO)cc2)n1 [Example 64z, 1-[4-[4-(1-cyclopropylsulfonylcyclobutyl)-6-[(3S)-3-methylmorpholin-4-yl]pyrimidin-2-yl]phenyl]-3-(3-hydroxypropyl)urea]	8.66 nM
CNC(=O)Nc1ccc(-c2nc(N3CCOC[C@@H]3C)cc(C3(S(=O)(=O)c4cc(F)ccc4C)CC3)n2)cc1 [Example 61, 1-[4-[4-[1-(5-Fluoro-2-methylphenyl)sulfonylcyclopropyl]-6-[(3S)-3-methylmorpholin-4-yl]pyrimidin-2-yl]phenyl]-3-methylurea]	26.9 nM
C[C@H]1COCCN1c1cc(C2(S(=O)(=O)C3CC3)CCNCC2)nc(-c2ccc(NC(=O)NC3CC3)cc2)n1 [Example 21, 3-Cyclopropyl-1-[4-[4-(4-cyclopropylsulfonylpiperidin-4-yl)-6-[(3S)-3-methylmorpholin-4-yl]pyrimidin-2-yl]phenyl]urea]	25.3 nM
C[C@H]1COCCN1c1cc(C2(S(=O)(=O)CCO)CC2)nc(-c2ccc(NC(=O)NCCCO)cc2)n1 [Example 16f, 1-[4-[4-[1-(2-hydroxyethylsulfonyl)cyclopropyl]-6-[(3S)-3-methylmorpholin-4-yl]pyrimidin-2-yl]phenyl]-3-(3-hydroxypropyl)urea]	21.2 nM
CNC(=O)Nc1ccc(-c2nc(N3CCOCC3)cc(C3(S(=O)(=O)c4nc(C)cs4)CC3)n2)cc1 [Example 42c, 3-methyl-1-[4-[4-[1-[(4-methyl-1,3-thiazol-2-yl)sulfonyl]cyclopropyl]-6-morpholin-4-ylpyrimidin-2-yl]phenyl]urea]	3.6 nM
O=C(NCCCO)Nc1ccc(-c2nc(N3CCOCC3)cc(C3(S(=O)(=O)c4ccccc4)CC3)n2)cc1 [Example 36dg, 1-[4-[4-[1-(benzenesulfonyl)cyclopropyl]-6-morpholin-4-ylpyrimidin-2-yl]phenyl]-3-(3-hydroxypropyl)urea]	16.4 nM
CNC(=O)Nc1ccc(-c2nc(N3CCOCC3)cc(C3(C(=O)NC4CC4)CC3)n2)cc1 [Example 32b, N-cyclopropyl-1-[2-[4-(methylcarbamoylamino)phenyl]-6-morpholin-4-ylpyrimidin-4-yl]cyclopropane-1-carboxamide]	8.29 nM
CCCNC(=O)Nc1ccc(-c2nc(N3CCOC[C@@H]3C)cc(C3(S(=O)(=O)CCCO)CCC3)n2)cc1 [Example 43k, 3-[4-[4-[1-(3-hydroxypropylsulfonyl)cyclobu-tyl]-6-[(3S)-3-methylmorpholin-4-yl]pyrimidin-2-yl]phenyl]-1-propylurea]	25.7 nM
CNC(=O)CS(=O)(=O)C1(c2cc(N3CCOCC3)nc(-c3ccc(NC(=O)NC4CC4)cc3)n2)CC1 [Example 46a]	12.6 nM

Now from value to molecule:

IC50	SMILES
42.6 nM	C[C@H]1COCCN1c1cc(C2(S(=O)(=O)c3ccc(C#N)cc3Cl)CC2)nc(-c2ccc(NC(=O)NCC(F)F)cc2)n1 [Example 85h, 1-[4-[4-[1-(2-chloro-4-cyanophenyl)sulfonylcyclopropyl]-6-[(3S)-3-methylmorpholin-4-yl]pyrimidin-2-yl]phenyl]-3-(2,2-difluoroethyl)urea]
3.14 nM	CC[C@H]1COCCN1c1cc(C2(S(=O)(=O)c3ccccc3)CC2)nc(-c2ccc(NC(=O)NCCF)cc2)n1 [Example 74c, 1-[4-[4-[1-(benzenesulfonyl)cyclopropyl]-6-[(3S)-3-ethylmorpholin-4-yl]pyrimidin-2-yl]phenyl]-3-(2-fluoroethyl)urea]
27.2 nM	CCNC(=O)Nc1ccc(-c2nc(N3CCOC[C@@H]3C)cc(C3(S(=O)(=O)CCCOC(F)F)CC3)n2)cc1 [Example 96c, 1-[4-[4-[1-[3-(difluoromethoxy)propylsulfonyl]cyclopropyl]-6-[(3S)-3-methylmorpholin-4-yl]pyrimidin-2-yl]phenyl]-3-ethylurea]
11 nM	Cc1csc(S(=O)(=O)C2(c3cc(N4CCOC[C@@H]4C)nc(-c4ccc(NC(=O)NC(C)(C)CO)cc4)n3)CCC2)n1 [Example 98a, 3-(1-hydroxy-2-methylpropan-2-yl)-1-[4-[4-[(3S)-3-methylmorpholin-4-yl]-6-[1-[(4-methyl-1,3-thiazol-2-yl)sulfonyl]cyclobutyl]pyrimidin-2-yl]phenyl]urea]
39.8 nM	CCNC(=O)Nc1ccc(-c2nc(N3CCOC[C@@H]3C)cc(C3(S(=O)(=O)CCC(C)(C)O)CC3)n2)cc1 [Example 79f, 1-ethyl-3-[4-[4-[1-(3-hydroxy-3-methylbutyl)sulfonylcyclopropyl]-6-[(3S)-3-methylmorpholin-4-yl]pyrimidin-2-yl]phenyl]urea]
6.25 nM	C[C@H]1COC[C@H](C)N1c1cc(C2(S(=O)(=O)C3CC3)CC2)nc(-c2ccc(NC(=O)NCCO)cc2)n1 [Example 92f, 1-[4-[4-(1-cyclopropylsulfonylcyclopropyl)-6-[(3S,5S)-3,5-dimethylmorpholin-4-yl]pyrimidin-2-yl]phenyl]-3-(2-hydroxyethyl)urea]
11.4 nM	C[C@H](CO)NC(=O)Nc1ccc(-c2nc(N3CCOC[C@@H]3C)cc(C3(S(=O)(=O)c4ccc(F)cc4)CCC3)n2)cc1 [Example 65e, 1-[4-[4-[1-(4-fluorophenyl)sulfonylcyclobutyl]-6-[(3S)-3-methylmorpholin-4-yl]pyrimidin-2-yl]phenyl]-3-[(2R)-1-hydroxypropan-2-yl]urea]

Reference: patent publication US20090018134A1, “Compounds - 945” (AstraZeneca AB, priority 2007, published 2009)
